Test results from patent US9969744B2, “Compounds for use in cognition improvement” (FUNDACIÓN PARA LA INVESTIGACIÓN MÉDICA APLICADA, priority 2014, dated 2018).
Marks after values point to notes of the source that are not given here.

Legend:
[1] = Pharmacokinetics: plasma and brain concentration in wild type mice; type: in vivo; conditions: 1 hour after 40 mg/Kg i.p.
Description: Plasma and brain samples for measuring compounds concentrations were collected at predetermined times from four wild type mice per point. Three time points were measured: 0.25, 0.5 and 1.0 hour. Compounds concentration was measured using a Xevo-TQ MS triple quadropole mass spectrometer with an electrospray ionization (ESI) source and an Acquity UPLC (Waters, Manchester, UK).
Compounds solutions were prepared by dissolving the samples in DMSO and this solution was made up to a final volume by addition of a mixture of Tween 20 and 0.9% NaCl (1/1/8, v:v:v, DMSO/Tween 20/saline). Compounds were injected as a single intraperitoneal injection. Animals were killed by decapitation.
Plasma. Blood was collected into tubes containing EDTA and plasma was collected via centrifugation (4° C., 13200 rpm, 5 min) and stored at −80° C. until analysis.
Brain. Brains were collected immediately after mice death. The brains were excised, weighed and frozen at −80° C. until further process for analysis.
Chromatographic separation was performed by gradient elution at 0.4 mL/min using an Acquity UPLC BEH C18 column (100×2.1 mm, 1.7 μm particle size; Waters). The mobile phase consisted of A: water with 0.1% formic acid, B: methanol with 0.1% formic acid. After 1.5 min at the initial condition of 95% A, solvent B was increased from 5% to 100% over 2 min, maintained at 100% for 1.5 min, then a linear gradient to initial conditions was applied for 0.1 min and maintained for 3.4 minutes to re-equilibrate the column, giving a cycle time of 8.5 min. The autosampler temperature was set at 10° C. and column temperature at 45° C.
Compounds were monitored using a triple quadrupole mass spectrometer equipped with an electrospray ionization interface. For detection and quantification, a capillary voltage of 3.5 kV and a cone voltage of 38 V were used. Source and desolvation temperatures were 150° C. and 650° C., respectively. Ultra-high purity nitrogen was used for cone gas (75 L h^−1) and desolvation gas (1000 L h^−1). The electrospray ionization operated in the positive mode, and the collision gas used was ultra-pure argon at a flow rate of 0.15 mL min^−1.
Quantification was achieved by external calibration using matrix-matched standards. Concentrations were calculated using a weighted least-squares linear regression (W=1/x). Calibration standards were prepared by adding the appropriate volume of diluted solutions of the compound (made in a mixture of methanol and water, 50:50, v:v) to aliquots of 50 uL of blank plasma or to 75 mg of homogenized blank brain. 2% formic acid in acetonitrile was added to precipitate the proteins. The mixture was then agitated for 10 min and centrifuged at 13200 rpm for 5 min at 4° C. […]

[2] = test system: aged-Tg2576 mice; experiment: Memory function in aged-Tg2576 mice: Fear Conditioning (FC); type: in vivo; conditions: Tg2576 mice (16-18 month), chronic treatment 3-5 weeks, 20 mg/Kg i.p.; standard error in brackets
Description: The effect on memory function of compounds of the invention was studied in Tg2576 mice (16-18 month) after a chronic treatment of 3-5 weeks by using two different behavioral tasks: the Fear Conditioning (FC) and the Morris water maze (MWM) test, Table 5 (below)
The behavioural procedure of FC task involved three phases: habituation, training and testing. During habituation phase, mice were habituated to the conditioning box (context) for 5 min with no stimuli presented. 24 hours later (training phase), mice were placed in the training chamber and allowed to explore for 2 min, afterward, a footshock (0.3 mA) unconditioned stimulus was administered (2 s) and 30 s after mice were returned to their home cage. Mice were returned to the conditioning chamber 24 h after training and allowed to explore the context for 2 min, during which freezing behavior was recorded (contextual long term memory). Freezing scores were expressed as percentages. The conditioning procedure was carried out in a StartFear system (Panlab S.L., Barcelona, Spain) that allows recording and analysis of the signal generated by the animal movement through a high sensitivity Weight Transducer system. The analogical signal is transmitted to the FREEZING and STARTLE software modulated through the load cell unit for recording purposes and posterior analysis in terms of activity/immobility.

## CCCc1nn(C)c2c(=O)[nH]c(-c3cc(Cc4ccc(C(=O)Nc5ccccc5N)cc4)ccc3OCC)nc12 [Example 1-11, N-(2-aminophenyl)-4-[[4-ethoxy-3-(1-methyl-7-oxo-3-propyl-6H-pyrazolo[4,3-d]pyrimidin-5-yl)phenyl]methyl]benzamide]
[1]
  Crosses BBB?: Yes
[1]; standard deviation in brackets
  C (brain): 1903.4 (565.8)^a nmol/Kg
  C (plasma): 12132.5 (1762.9)^a nM
[1]; mouse, brain/plasma, intraperitoneal, read-out: Brain/Plasma ratio
  Kp at 1 h: 0.157
[2]
  FC (% freezing): 59.65 (9.2)^c %
